Results: ChEMBL document CHEMBL1127001, “Novel sigma receptor ligands 2” (Bioorg Med Chem Lett, 1993)

What was measured:
[1] = target: T1, Sigma non-opioid intracellular receptor 1 (Homo sapiens, UniProt Q99720); experiment: Binding affinity for sigma receptor using [3H]-(+)-SKF- 10,047
D(2) dopamine receptor = D(2) dopamine receptor (Homo sapiens, UniProt P14416); experiment: Binding affinity towards dopamine D2 receptor using radiolabeled ligand [3H]spiperone
Glutamate NMDA receptor = experiment: Binding affinity towards PCP receptor in rat brain membrane using radiolabeled ligand [3H]TCP (1-[1-(2-thienyl)cyclohexyl]piperidine) was determined; format: cell membranes
[2] = target: T1, Sigma non-opioid intracellular receptor 1; experiment: Binding affinity towards sigma receptor using radiolabeled ligand [3H]-(+)-SKF- 10,047 was determined
[3] = Binding affinity towards dopamine D2 receptor using radiolabeled ligand [3H]spiperone

T1 sequence (Q99720 whole entry): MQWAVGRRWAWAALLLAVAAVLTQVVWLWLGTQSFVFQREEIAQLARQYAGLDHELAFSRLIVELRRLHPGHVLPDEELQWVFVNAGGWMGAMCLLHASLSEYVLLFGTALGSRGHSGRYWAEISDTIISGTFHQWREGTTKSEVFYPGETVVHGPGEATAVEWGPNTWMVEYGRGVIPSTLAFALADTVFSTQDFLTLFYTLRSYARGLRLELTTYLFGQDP
Sequence of D(2) dopamine receptor (P14416 whole entry): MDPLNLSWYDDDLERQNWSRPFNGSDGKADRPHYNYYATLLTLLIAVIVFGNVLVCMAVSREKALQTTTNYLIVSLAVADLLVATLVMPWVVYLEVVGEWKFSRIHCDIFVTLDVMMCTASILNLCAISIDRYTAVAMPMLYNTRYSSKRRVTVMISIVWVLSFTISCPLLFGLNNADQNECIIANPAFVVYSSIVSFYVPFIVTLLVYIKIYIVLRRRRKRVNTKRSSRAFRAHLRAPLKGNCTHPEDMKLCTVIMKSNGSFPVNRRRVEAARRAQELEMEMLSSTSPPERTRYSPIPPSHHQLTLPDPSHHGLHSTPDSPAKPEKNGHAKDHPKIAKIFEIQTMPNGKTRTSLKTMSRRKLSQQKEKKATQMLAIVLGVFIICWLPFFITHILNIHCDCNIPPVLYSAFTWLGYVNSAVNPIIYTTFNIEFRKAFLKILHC

Ki [1] | Ki (D(2) dopamine receptor) | Ki (Glutamate NMDA receptor) | Ki [3] | Structure (SMILES) | Ki [2]
0.013 µM |  |  |  | O=C1CC2(CCCN(Cc3ccccc3)C2)OC=C1c1ccccc1 (single isomer, unassigned; (-)) | 
 | > 10 µM | > 10 µM |  | O=C1C[C@]2(CC[C@@H](OCc3ccccc3)CC2)OC=C1c1ccccc1 | 
0.007 µM | 1.08 µM |  |  | O=C1CC2(CCN(CCc3ccccc3)CC2)OC=C1c1cccs1 | 
 | > 10 µM | > 10 µM |  | O=C1C[C@]2(CC[C@H](OCc3ccccc3)CC2)OC=C1c1ccccc1 | 
 |  | 2.23 µM | 0.047 µM | O=C1C(c2ccc(F)cc2)COC12CCN(Cc1ccccc1)CC2 (single isomer, unassigned; (-)) | 
0.01 µM | 4.2 µM |  |  | O=C1C=C(c2ccccc2)OC2(CCN(CCc3ccccc3)CC2)C1 | 
 | 1.46 µM |  |  | O=C1CC2(CCN(Cc3ccccc3)CC2)OC=C1c1ccccc1 | 
 | 8.78 µM | > 10 µM |  | O=C1CC2(CCCN(Cc3ccccc3)C2)OC=C1c1ccc(F)cc1 (single isomer, unassigned; (-)) | 0.131 µM

Continued, compound first:

Structure (SMILES) | Ki [1] | Ki (D(2) dopamine receptor) | Ki (Glutamate NMDA receptor) | Ki [3] | Ki [2]
CN1CCC2(CC1)CC(=O)C(c1ccccc1)=CO2 | 6.88 µM | > 100 µM |  |  | 
CN(C)CC1(C)CC(=O)C(c2ccccc2)=CO1 (single isomer, unassigned; (-)) | 0.352 µM | 4.1 µM |  |  | 
CN1C2CCC1CC1(CC(=O)C(c3ccccc3)=CO1)C2 (single isomer, unassigned; (-)) | 1.83 µM | > 10 µM |  |  | 
O=C1CC2(CCN(CCc3ccccc3)CC2)OCC1c1ccc(F)cc1 (stereo not drawn) |  | 1.53 µM | 14 µM |  | 
O=C1CC2(CCN(CCc3ccccc3)CC2)OC=C1c1ccccc1 |  | 2.03 µM | > 10 µM |  | 0.005 µM
O=C1CC2(CCN(CCc3ccccc3)CC2)OC=C1c1ccccc1F |  | 2.33 µM | 30 µM |  | 0.001 µM
COc1ccc(C2=COC3(CCN(CCc4ccccc4)CC3)CC2=O)cc1 | 0.03 µM | 1.5 µM |  |  | 
O=C1C=C(c2ccco2)OC2(CCN(CCc3ccccc3)CC2)C1 | 0.07 µM | 7.6 µM |  |  | 
CCN(CC)CCCC1(C)CC(=O)C(c2ccccc2)=CO1 (single isomer, unassigned; (-)) |  | > 10 µM | > 10 µM |  | 0.034 µM
O=C1CC2(CN3CCC2CC3)OC=C1c1ccccc1 (stereo not drawn) | 1.59 µM | > 10 µM |  |  | 
CN1CCC2(CC1)CC(=O)C(c1ccc(F)cc1)=CO2 | 7.3 µM | > 100 µM |  |  | 
O=C1CC2(CCN(CCc3ccccc3)CC2)OC=C1c1ccc(F)cc1 |  | 2.9 µM | 1.69 µM |  | 0.006 µM
